Literature values as cited in patent US7993390B2, “Implantable or insertable medical device resistant to microbial growth and biofilm formation” (Boston Scientific Scimed, Inc., priority 2002, dated 2011).

System: most gram positive and gram negative aerobic and anaerobic bacteria, some yeast and fungi
Conditions: most organisms tested

Structure (SMILES): Oc1cc(Cl)ccc1Oc1ccc(Cl)cc1Cl [triclosan]
- MIC: < 0.3 ppm
